Data published in patent US20200222474A1, “COMPOSITIONS AND METHODS FOR INCREASING PHYTOCHEMICAL BIOAVAILABLITY AND BIOACTIVITY” (North Carolina State University, priority 2017, published 2020).

What was measured:
L. acidophilus NCFM [1] = experiment: Growth of L. acidophilus NCFM on plant glycosides as single carbon source (OD600); format: cell-based, Lactobacillus acidophilus; conditions: for OD600 max: single carbon source, 200 μl cultures, 96 microtitre plates, corrected for medium without carbon source
Experimental: (§1) For initial growth and gene expression studies, L. acidophilus NCFM was propagated three times in semi-defined medium (SDM) supplemented with either 1% or 0,5% (w/v) of the plant glycoside or carbohydrate (Table 1). For the RNA-seq analysis, cells were harvested by centrifugation (3,220×10 min, 25° C.) in the mid-exponential phase (OD600=0.6-0.8) and stored at −80° C. for subsequent RNA isolation. For the mass spectrometry metabolite analyses, 200 μt samples were taken at 0, 3, 6, 9, 12, and 24 hours of growth; cells were removed by centrifugation; and supernatants were stored at −80° C. for further analysis.
(§2) Phenotypic growth assays were performed using 1% (v/v) overnight cultures of L. acidophilus strains (Table 2) and other Lactobacillus species (Table 3) grown on SDM supplemented with 1% (w/v) glucose to inoculate 200 μL of SDM supplemented with 1% (w/v) of the examined carbohydrate (0.5% in the case of esculin) in 96-well microplate wells (Corning Costar, Corning, N.Y., USA) in duplicate or triplicate wells, respectively. The microplates were sealed with clear adhesive film, incubated at 37° C. in a Fluostar Optima microplate reader (BMG Labtech, Cary, N.C., USA), and the cell optical density (OD600) was monitored for 30 hours.
The growth of L. acidophilus NCFM was evaluated on twelve chemically diverse, nutritionally relevant and/or therapeutically active PGs 1; Table 1). FIG. 1A provides the structures and common sources of plant glycoside substrates described herein. The compounds that support growth of Lactobacillus acidophilus are in green. RI: β-D-Glcp; R2: Gentiobioside (β-D-Glcp-(1,6)-D-Glcp); R3: Rutinoside (α-L-Rhaf-(1,6)-D-Glcp). The graph in FIG. 1B depicts plant glycoside utilization analyzed by mass spectrometry and the growth as the maximum OD600. Due to the low solubility of polydatin, OD600 cannot be used as a growth metric and utilization of this compound is confirmed by the production of lactate as well as a high utilization level based on the metabolite analysis.

[2] = system: L. intestinalis Th4, ATCC 49335, DSM 6629; experiment: Phenotypic growth assay (OD600); format: cell-based; conditions: SDM + 1% (w/v) carbohydrate (0.5% esculin), 37° C., 30 hours; corrected to medium without carbohydrate
Experimental: as §2

[3] = system: L. amyloverus ATCC 33620, DSM 20531; experiment: Phenotypic growth assay (OD600); format: cell-based; conditions: SDM + 1% (w/v) carbohydrate (0.5% esculin), 37° C., 30 hours; corrected to medium without carbohydrate
Experimental: as §2

[4] = system: L. rhanmosus GG (ATCC 53103); experiment: Phenotypic growth assay (OD600); format: cell-based; conditions: SDM + 1% (w/v) carbohydrate (0.5% esculin), 37° C., 30 hours; corrected to medium without carbohydrate
Experimental: as §2

[5] = system: L. plantarum sp. plantarum ATCC 14917, LA70; experiment: Phenotypic growth assay (OD600); format: cell-based; conditions: SDM + 1% (w/v) carbohydrate (0.5% esculin), 37° C., 30 hours; corrected to medium without carbohydrate
Experimental: as §2

[6] = system: L. jensenii ATCC 25258, 62G, DSM 20557; experiment: Phenotypic growth assay (OD600); format: cell-based; conditions: SDM + 1% (w/v) carbohydrate (0.5% esculin), 37° C., 30 hours; corrected to medium without carbohydrate
Experimental: as §2

L. acidophilus LA-1 = experiment: Phenotypic growth assay (OD600); format: cell-based; conditions: SDM + 1% (w/v) carbohydrate (0.5% esculin), 37° C., 30 hours; corrected to medium without carbohydrate
Experimental: as §2

[7] = system: L. crispatus ATCC 33820, DSM 20584; experiment: Phenotypic growth assay (OD600); format: cell-based; conditions: SDM + 1% (w/v) carbohydrate (0.5% esculin), 37° C., 30 hours; corrected to medium without carbohydrate
Experimental: as §2

L. fermentum ATCC 14931 = experiment: Phenotypic growth assay (OD600); format: cell-based; conditions: SDM + 1% (w/v) carbohydrate (0.5% esculin), 37° C., 30 hours; corrected to medium without carbohydrate
Experimental: as §2

L. animalis DSM 20602 = experiment: Phenotypic growth assay (OD600); format: cell-based; conditions: SDM + 1% (w/v) carbohydrate (0.5% esculin), 37° C., 30 hours; corrected to medium without carbohydrate
Experimental: as §2

L. johnsonii ATCC 33200 = experiment: Phenotypic growth assay (OD600); format: cell-based; conditions: SDM + 1% (w/v) carbohydrate (0.5% esculin), 37° C., 30 hours; corrected to medium without carbohydrate
Experimental: as §2

L. helveticus CNRZ32 = experiment: Phenotypic growth assay (OD600); format: cell-based; conditions: SDM + 1% (w/v) carbohydrate (0.5% esculin), 37° C., 30 hours; corrected to medium without carbohydrate
Experimental: as §2

L. gasseri ATCC 33323 = experiment: Phenotypic growth assay (OD600); format: cell-based; conditions: SDM + 1% (w/v) carbohydrate (0.5% esculin), 37° C., 30 hours; corrected to medium without carbohydrate
Experimental: as §2

[8] = system: L. reuteri (ATCC 23272, DSM 20016); experiment: Phenotypic growth assay (OD600); format: cell-based; conditions: SDM + 1% (w/v) carbohydrate (0.5% esculin), 37° C., 30 hours; corrected to medium without carbohydrate
Experimental: as §2

L. acidophilus NCFM [9] = experiment: Plant glycoside uptake and metabolite analysis of L. acidophilus NCFM culture supernatants by UHPLC-DAD-Q-TOF-MS; format: cell-based, Lactobacillus acidophilus; conditions: qualitative: depletion of the plant glycoside and/or appearance of its metabolites
Experimental: as §1
Analysis of plant glycoside uptake from L. acidophilus NCFM culture supernatants using mass spectrometry. The supernatants of L. acidophilus NCFM cultures grown on amygdalin, arbutin, esculin or salicin as carbon sources were analyzed during 24 hours by ultra-high performance liquid chromatography-diode array detection-quadruple time of flight mass spectrometry (UHPLC-DAD-Q-TOF-MS). Samples were diluted 1:20 (v/v) with methanol and an injection volume of […] was used. Separation was carried out on an Agilent Poroshell 120 phenyl-hexyl column (2.1×150 mm, 2.7 μm) using the Agilent Infinity 1290 UHPLC system (Agilent Technologies, Santa Clara, Calif., USA) equipped with a UV/vis spectrum diode array detector. Separation was performed at 0.35 mL min-1., 60° C. with a linear gradient consisting of water (A) and acetonitrile (B) both buffered with 20 mM formic acid, starting at 10% B and increased to 100% in 15 min where it was held for 2 min, returned to 10% in 0.1 min and kept for 3 min. MS detection was performed on an Agilent 6550 iFunnel QTOF MS equipped with Agilent Dual Jet Stream electrospray ion source with the drying gas temperature of 160° C. and gas flow of 13 L min^−1, whereas the sheath gas temperature was 300° C. and flow was 16 L min-1. Ionization was conducted in ESI-mode with capillary voltage set to 4000 V and nozzle voltage to 500 V. Mass spectra were recorded as centroid data for m/z 85-1700 in MS mode with an acquisition rate of 10 spectra s^−1. To avoid carry-over, the needle seat was back-flushed for 15 s at 4 mL min-1 with each of: i) isopropanol: 0.2% ammonium hydroxide (w/v) in water (1:1 v/v); ii) acetonitrile with 2% formic acid (w/v); iii) water with 2% formic acid. Data was processed with the Agilent Mass Hunter Qualitative Analysis B.07.00 software package (Agilent Technologies) and molar concentrations were obtained from standard curves of the plant glycosides and their main metabolites. Targeted compound searches were performed using lists of previously identified compounds plus standard chemical modifications.

[10] = growth concentration 0.5% (w/v)

SMILES: C=CCC(=NOS(=O)(=O)O)S[C@@H]1O[C@H](CO)[C@@H](O)[C@H](O)[C@H]1O (stereo in doubt) [Sinigrin hydrate]
- OD600 max (L. acidophilus NCFM [1]; [10]): 0.0

SMILES: OC[C@H]1O[C@@H](Oc2ccc(O)cc2)[C@H](O)[C@@H](O)[C@@H]1O [Arbutin]
- Growth (OD600 max class) of L. acidophilus NCFM (L. acidophilus NCFM [1]; SDM + 1% (w/v) carbohydrate (0.5% esculin), 37° C., 30 hours, corrected to medium without carbohydrate): − (“−” signifies OD600 max < 0.1.)
- OD600 max (L. acidophilus NCFM [1]; growth concentration 1% (w/v)): 0.0
- Growth (OD600 max class) of L. intestinalis Th4, ATCC 49335, DSM 6629 [2]: − (“−” signifies OD600 max < 0.1.)
- Growth (OD600 max class) of L. amyloverus ATCC 33620, DSM 20531 [3]: − (“−” signifies OD600 max < 0.1.)
- Growth (OD600 max class) of L. rhanmosus GG (ATCC 53103) [4]: +++ (“+++” signifies OD600 max > 0.6.)
- Growth (OD600 max class) of L. plantarum sp. plantarum ATCC 14917, LA70 [5]: +++ (“+++” signifies OD600 max > 0.6.)
- Growth (OD600 max class) of L. jensenii ATCC 25258, 62G, DSM 20557 [6]: + (“+” signifies 0.3 > OD600 max > 0.1.)
- Growth (OD600 max class) of L. acidophilus LA-1 (L. acidophilus LA-1): − (“−” signifies OD600 max < 0.1.)
- Growth (OD600 max class) of L. crispatus ATCC 33820, DSM 20584 [7]: − (“−” signifies OD600 max < 0.1.)
- Growth (OD600 max class) of L. fermentum ATCC 14931 (L. fermentum ATCC 14931): − (“−” signifies OD600 max < 0.1.)
- Growth (OD600 max class) of L. animalis DSM 20602 (L. animalis DSM 20602): + (“+” signifies 0.3 > OD600 max > 0.1.)
- Growth (OD600 max class) of L. johnsonii ATCC 33200 (L. johnsonii ATCC 33200): + (“+” signifies 0.3 > OD600 max > 0.1.)
- Growth (OD600 max class) of L. helveticus CNRZ32 (L. helveticus CNRZ32): − (“−” signifies OD600 max < 0.1.)
- Growth (OD600 max class) of L. gasseri ATCC 33323 (L. gasseri ATCC 33323): − (“−” signifies OD600 max < 0.1.)
- Growth (OD600 max class) of L. reuteri (ATCC 23272, DSM 20016) [8]: − (“−” signifies OD600 max < 0.1.)
- Catabolism based on MS (L. acidophilus NCFM [9]; growth concentration 1% (w/v)): No

SMILES: OCC1=C[C@@H](O)[C@@H]2C=CO[C@@H](O[C@@H]3O[C@H](CO)[C@@H](O)[C@H](O)[C@H]3O)[C@H]12 [Aucubin]
- OD600 max (L. acidophilus NCFM [1]; [10]): 0.0
- Catabolism based on MS (L. acidophilus NCFM [9]; [10]): No

SMILES: O=c1c(-c2ccc(O)cc2)coc2cc(O[C@@H]3O[C@H](CO)[C@@H](O)[C@H](O)[C@H]3O)ccc12 [Daidzin]
- OD600 max (L. acidophilus NCFM [1]; [10]): 0.0

SMILES: COc1cc2ccc(=O)oc2c(O[C@@H]2O[C@H](CO)[C@@H](O)[C@H](O)[C@H]2O)c1O [Fraxin]
- OD600 max (L. acidophilus NCFM [1]; [10]): 0.4
- Catabolism based on MS (L. acidophilus NCFM [9]; [10]): Yes

SMILES: O=c1c(O[C@@H]2O[C@H](CO)[C@@H](O)[C@H](O)[C@H]2O)c(-c2ccc(O)c(O)c2)oc2cc(O)cc(O)c12 [Isoquercetin]
- OD600 max (L. acidophilus NCFM [1]; [10]): 0.0

SMILES: C[C@@H]1O[C@@H](OC[C@H]2O[C@@H](Oc3c(-c4ccc(O)c(O)c4)oc4cc(O)cc(O)c4c3=O)[C@H](O)[C@@H](O)[C@@H]2O)[C@H](O)[C@H](O)[C@H]1O [Rutin hydrate]
- OD600 max (L. acidophilus NCFM [1]; [10]): 0.1

SMILES: COc1cc(C=O)ccc1O[C@@H]1O[C@H](CO)[C@@H](O)[C@H](O)[C@H]1O [Vanilin 4-O-β-glucoside]
- OD600 max (L. acidophilus NCFM [1]; [10]): 1.3
- Catabolism based on MS (L. acidophilus NCFM [9]; [10]): Yes

SMILES: OCc1ccccc1O [salicyl alcohol]
- ability of the aglycone per se to support growth (L. acidophilus NCFM [1]; data not shown): unable to support growth
